Values quoted from earlier work in US20140230256A1, “HAND HELD DEVICE” (The Gillette Company, priority 2013, published 2014).

Settings: organism not stated

Compound: CCCCCCCCn1sc(Cl)c(Cl)c1=O [4,5-dichloro-2-n-octyl-4-isothiazolin-3-one]
- MIC: about 50 ppm
